Common to all, as to assay type: biochemical
One experiment addresses T1, GST-Chk1 enzyme (Homo sapiens, UniProt O14757).
T1 sequence (O14757 1-476): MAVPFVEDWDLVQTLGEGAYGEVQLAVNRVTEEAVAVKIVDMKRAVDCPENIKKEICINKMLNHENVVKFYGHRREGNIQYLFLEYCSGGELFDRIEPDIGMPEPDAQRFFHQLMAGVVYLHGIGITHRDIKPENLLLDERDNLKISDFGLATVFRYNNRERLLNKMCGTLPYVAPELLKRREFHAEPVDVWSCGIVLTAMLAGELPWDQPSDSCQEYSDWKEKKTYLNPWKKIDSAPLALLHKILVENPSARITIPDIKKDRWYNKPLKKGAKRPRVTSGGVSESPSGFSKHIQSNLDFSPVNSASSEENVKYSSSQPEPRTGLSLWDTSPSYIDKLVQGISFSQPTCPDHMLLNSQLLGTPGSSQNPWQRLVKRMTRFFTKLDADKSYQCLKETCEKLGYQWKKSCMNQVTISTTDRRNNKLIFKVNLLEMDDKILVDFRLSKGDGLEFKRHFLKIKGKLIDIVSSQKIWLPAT
Description: Chk1 kinase assay (33P Chktide phosphorylation). The settings on record: 0.01 mM ATP, 40 minutes at 30° C.; read-out: CHK-1 IC50. Here is the method: The assay mixture containing the inhibitor and Chk1 enzyme was mixed together in a microtiter plate in a final volume of 50 μl and incubated for 40 minutes at 30° C. […] The reaction was stopped by adding 50 μl of 50 mM phosphoric acid. 90 μl of the mixture was transferred to a pre-wetted 96-well multi-screen MAPHNOB filtration plate (Millipore) and filtered on a vacuum manifold. The filter plate was washed with 3 successive additions of 200 μl 50 mM phosphoric acid and then with 100 μl methanol. The filtration plate was dried for 10 min at 65° C., scintillant added and phosphorylated peptide quantified in a scintillation counter (Trilux, PerkinElmer)

Experiment [1] deals with CDK-2 enzyme, complexed with cyclin A (Homo sapiens, UniProt P24941). Description: CDK2 kinase assay (33P peptide phosphorylation). The settings on record: 0.1 mM ATP, cyclin A complex. As for the experimental part: (§1) The assay mixture containing the inhibitor and CDK-2 enzyme, complexed with cyclin A (0.4 U/ml) was mixed together in a microtiter plate in a final volume of 50 μl and incubated for 40 min at 30° C. The assay mixture contained 0.1 mM unlabeled ATP, 0.01 μCi/μl ^33P-γ-ATP, 0.03 mM peptide, 0.1 mg/ml BSA, 7.5 mM magnesium acetate, 50 mM HEPES-NaOH, pH 7.5. The reaction was stopped by adding 50 μl of 50 mM phosphoric acid. 90 μl of the mixture were transferred to a pre-wetted 96-well Multiscreen MAPHNOB filtration plate (Millipore) and filtered on a vacuum manifold. The filter plate was washed with 3 successive additions of 200 μl 50 mM phosphoric acid and then with 100 μl methanol. The filtration plate was dried for 10 min at 65° C., scintillant added and phosphorylated peptide quantified in a scintillation counter (Trilux, PerkinElmer)

The target in another experiment is T2, PDK1 (Homo sapiens, UniProt O15530).
T2 sequence (O15530 1-556): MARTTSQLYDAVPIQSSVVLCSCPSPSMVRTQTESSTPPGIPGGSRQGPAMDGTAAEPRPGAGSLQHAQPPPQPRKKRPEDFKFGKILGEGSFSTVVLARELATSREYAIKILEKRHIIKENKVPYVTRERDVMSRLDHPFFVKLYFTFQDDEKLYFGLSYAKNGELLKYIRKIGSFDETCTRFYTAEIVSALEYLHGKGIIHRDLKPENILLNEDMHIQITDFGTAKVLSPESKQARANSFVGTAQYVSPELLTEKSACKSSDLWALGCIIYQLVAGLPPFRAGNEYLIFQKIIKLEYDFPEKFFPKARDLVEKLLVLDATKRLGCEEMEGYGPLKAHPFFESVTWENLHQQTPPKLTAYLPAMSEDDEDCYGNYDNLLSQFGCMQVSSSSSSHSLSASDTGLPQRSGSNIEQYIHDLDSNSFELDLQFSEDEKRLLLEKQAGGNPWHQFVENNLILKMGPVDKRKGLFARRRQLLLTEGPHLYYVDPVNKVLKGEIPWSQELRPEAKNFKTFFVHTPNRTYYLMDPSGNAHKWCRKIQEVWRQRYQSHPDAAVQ
Description: PDK1 kinase assay (33P peptide phosphorylation). The settings on record: 0.01 mM ATP, 60 min at 30° C.; read-out: PDK-1 IC50. Here is the method: as §1, with “and PDK1 enzyme” for “and CDK-2 enzyme, complexed with cyclin A (0.4 U/ml)”, “for 60” for “for 40”, “contained 0.01” for “contained 0.1”, “^33P-γ-ATP, 0.075” for “^33P-γ-ATP, 0.03”, “acetate, 0.05M Tris.HCl,” for “acetate, 50 mM HEPES-NaOH,”, “pH 7.5, 0.5% 2-mercaptoethanol.” for “pH 7.5.”

The target in another experiment is T3, PKA (Homo sapiens, UniProt P17612).
T3 construct: purchased Upstate
Description: PKA kinase assay (Kemptide substrate). Conditions: 100 μM ATP. Here is the method: as §1
The PKA assay was incubated at 30° C. for 30 minutes.

The next experiment addresses T4, Akt1 (Homo sapiens, UniProt P31749).
T4 construct: purchased Upstate
Description: Akt1 kinase assay (Histone H1 substrate). The settings on record: 200 μM ATP, read-out: AKT-1 IC50. As for the experimental part: Assays for the cyclin dependent kinase activity were carried out by monitoring the phosphorylation of a synthetic peptide, HATTPKKKRK. The assay mixture containing the inhibitor and CDK-2 enzyme, complexed with cyclin A (0.4 U/ml) was mixed together in a microtiter plate in a final volume of 50 μl and incubated for 40 min at 30° C. The assay mixture contained 0.1 mM unlabeled ATP, 0.01 μCi/μl ^33P-γ-ATP, 0.03 mM peptide, 0.1 mg/ml BSA, 7.5 mM magnesium acetate, 50 mM HEPES-NaOH, pH 7.5. The reaction was stopped by adding 50 μl of 50 mM phosphoric acid. 90 μl of the mixture were transferred to a pre-wetted 96-well Multiscreen MAPHNOB filtration plate (Millipore) and filtered on a vacuum manifold. The filter plate was washed with 3 successive additions of 200 μl 50 mM phosphoric acid and then with 100 μl methanol. The filtration plate was dried for 10 min at 65° C., scintillant added and phosphorylated peptide quantified in a scintillation counter (Trilux, PerkinElmer)
Protocol for the Akt assay is the same for CDK2 except that, 3 nM Akt1 (Upstate) was used with Histone H1 as substrate with a final ATP concentration of 200 μM. The reaction was incubated at 30° C. for 40 minutes.

The structures appear in SMILES notation. pIC50: −log10 of the molar value. Bounds are passed on as bounds.

The source of these data is US20090131470A1, “PYRAZOLE-SUBSTITUTED BENZIMIDAZOLE DERIVATIVES FOR USE IN THE TREATMENT OF CANCER AND AUTOIMMUNE DISORDERS” (priority 2005, published 2009).

One may read the pIC50 as the IC50 on a negative log10 scale, so that one unit is a factor of ten.

T4 sequence (P31749 whole entry, species assumed): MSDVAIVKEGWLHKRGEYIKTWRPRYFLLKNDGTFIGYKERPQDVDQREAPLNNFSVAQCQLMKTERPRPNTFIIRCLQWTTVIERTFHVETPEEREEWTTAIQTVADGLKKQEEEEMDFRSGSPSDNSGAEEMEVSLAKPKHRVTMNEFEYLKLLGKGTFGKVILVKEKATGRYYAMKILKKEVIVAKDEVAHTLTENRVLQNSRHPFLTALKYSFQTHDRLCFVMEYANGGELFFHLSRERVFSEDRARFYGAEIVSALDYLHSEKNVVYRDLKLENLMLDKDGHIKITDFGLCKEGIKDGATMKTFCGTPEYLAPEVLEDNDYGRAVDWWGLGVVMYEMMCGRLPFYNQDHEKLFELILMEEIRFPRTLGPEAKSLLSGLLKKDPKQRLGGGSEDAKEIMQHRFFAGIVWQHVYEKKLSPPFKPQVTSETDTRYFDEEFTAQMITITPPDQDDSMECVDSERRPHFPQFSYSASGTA

As for `Cc1cc2nc(-c3n[nH]c(C)c3C(=O)NC3CCCN(C)C3)[nH]c2cc1C` (stereo not drawn) [Example 3, 3-(5,6-Dimethyl-1H benzoimidazole-2-yl)-5-methyl-1H-pyrazole-4-carboxylic Acid (1-methyl-piperidin-3-yl)-amide], the pIC50 was 7.11 at GST-Chk1 enzyme; 4.51 in experiment [1]; 6.36 on PDK1; 4.63 against PKA; 4.38 at Akt1.
In the case of `Cc1[nH]nc(-c2nc3ccc(C(C)(C)C)cc3[nH]2)c1C(=O)N[C@@H]1CN2CCC1CC2` [Example 41], the pIC50 is 7.60 at GST-Chk1 enzyme; below 4.30 in experiment [1]; 7.28 at PDK1; 5.67 on PKA; below 5.00 on Akt1.
As to `Cc1[nH]nc(-c2nc3ccccc3[nH]2)c1C(=O)NC1CCN(C)CC1` [Example 30], the pIC50 at GST-Chk1 enzyme is 7.20; in experiment [1], 5.66; at PDK1 it was 6.86; at PKA, 4.69; on Akt1 it was 4.93.
With `Cc1[nH]nc(-c2nc3ccccc3[nH]2)c1C(=O)NC1CCN(Cc2ccccc2)CC1` [Example 10], the negative-log IC50 (pIC50) is 6.97 on GST-Chk1 enzyme; 4.36 in experiment [1]; 6.36 at PDK1; 4.54 on PKA; below 4.30 at Akt1.
The corresponding values for `Cc1[nH]nc(-c2nc3cc(Cl)ccc3[nH]2)c1C(=O)NC1CCNCC1` [Example 17] are 6.65, 4.97, 6.72, 5.04 and below 4.30.
With `Cc1[nH]nc(-c2nc3ccc(C(C)C)cc3[nH]2)c1C(=O)NC1CN2CCC1CC2` (stereo not drawn) [Example 42], the pIC50 at GST-Chk1 enzyme is 7.30; in experiment [1], 5.01; at PDK1, 7.35; against PKA it was 5.42; on Akt1 it was below 5.00.
For the compound `Cc1[nH]nc(-c2nc3cc4ccccc4cc3[nH]2)c1C(=O)NCC1CCCNC1` (stereo not drawn) [Example 28], the pIC50 at GST-Chk1 enzyme is 8.10; in experiment [1], 5.07; on PDK1, 6.90; on PKA, 5.05; at Akt1, below 4.30.
`Cc1[nH]nc(-c2nc3cc(F)c(F)cc3[nH]2)c1C(=O)NC1CCNCC1` [Example 13]: the pIC50 at GST-Chk1 enzyme is 6.29; in experiment [1], 5.10; on PDK1, 6.28; on PKA, 4.71; at Akt1, below 4.30.
With `Cc1[nH]nc(-c2nc3ccccc3[nH]2)c1C(=O)NCC1CCNCC1` [Example 9], the pIC50 at GST-Chk1 enzyme was 6.68; in experiment [1], 4.33; at PDK1 it was 6.89; at PKA, 5.12; at Akt1, 4.95.
The corresponding values for `Cc1[nH]nc(-c2nc3cc4cn[nH]c4cc3[nH]2)c1C(=O)NCC1CCNCC1` [Example 22] are 7.03, 4.51, 6.96, 5.19 and 4.44.
Regarding `COCCNC(=O)c1ccc2nc(-c3n[nH]c(C)c3C(=O)NC3CCNCC3)[nH]c2c1` [Example 31], the negative-log IC50 (pIC50) is 8.70 on GST-Chk1 enzyme; 4.94 in experiment [1]; 7.14 on PDK1; 5.09 at PKA; 4.50 on Akt1.
On to `Cc1[nH]nc(-c2nc3cc(C#N)ccc3[nH]2)c1C(=O)NC1CCNCC1` [Example 18], for which the negative-log IC50 (pIC50) on GST-Chk1 enzyme is 6.86; in experiment [1], 4.91; at PDK1, 6.51; on PKA, 4.65; on Akt1 it was below 4.30.
For the compound `Cc1[nH]nc(-c2nc3cc4ccccc4cc3[nH]2)c1C(=O)NCC1CCNC1` (stereo not drawn) [Example 27], the pIC50 is 8.40 on GST-Chk1 enzyme; 5.20 in experiment [1]; 6.84 on PDK1; 5.08 at PKA; below 4.30 at Akt1.
The corresponding values for `Cc1[nH]nc(-c2nc3ccccc3[nH]2)c1C(=O)NCCCN` [Example 4, 3-(1H-Benzoimidazol-2-yl)-5-methyl-1H-pyrazole-4-carboxylic Acid (3-amino-propyl)-amide] are 7.51, 4.40, 6.67, 4.68 and below 4.30.
The corresponding values for `Cc1[nH]nc(-c2nc3cc(-c4cccc5c4CCO5)ccc3[nH]2)c1C(=O)NC1CCNCC1` [Example 23] are 7.82, 4.68, 6.90, 5.27 and 4.59.
Taken in the same sequence, the figures for `Cc1[nH]nc(-c2nc3ccc(C(F)(F)F)cc3[nH]2)c1C(=O)NCC1CCCNC1` (stereo not drawn) [Example 39] were 7.31, below 4.30, 7.07, below 4.30 and below 5.00.
As for `Cc1[nH]nc(-c2nc3ccc(C4CC4)cc3[nH]2)c1C(=O)NC1CN2CCC1CC2` (stereo not drawn) [Example 47], the negative-log IC50 (pIC50) at GST-Chk1 enzyme is 7.07; in experiment [1], below 4.30; on PDK1, 6.97; against PKA, 5.42; at Akt1, below 5.00.
`Cc1[nH]nc(-c2nc3cc(F)c(NC(=O)C4CC4)cc3[nH]2)c1C(=O)NC1CCN(C)CC1` [Example 34]: the pIC50 on GST-Chk1 enzyme was 7.89; in experiment [1], 4.69; at PDK1, 6.67; at PKA, 4.55; at Akt1, 4.36.
